Patent US10358434B2, “2-(3-pyridinyl)-1H-benzimidazole derivative compound and medicament containing same” (NIHON MEDI-PHYSICS CO., LTD., priority 2014, dated 2019)

Legend:
[1] = system: human adrenal gland section expressing aldosterone-producing adenoma; experiment: In vitro autoradiography using human adrenal adenoma; type: binding; conditions: section of FIG. 17(b)
Summary of the method: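 Autoradiography readout: PSL in equal-sized ROIs over adenoma (B2) and normal adrenal cortex (B1), expressed as B2/B1 and decay-corrected using half-life, applied activity and plate contact time. Tissue was surgically excised human adrenal, frozen and cut at 7 μm, incubated 10 min with 5-33 kBq/mL tracer in BSA-containing PBS, then imaged after 16-20 h exposure.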

[2] = In vivo kinetics experiment (radioactivity distribution); design: species or system Wistar male rat; conditions: rat i.v., mean ± SD
Summary of the method: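 Tissue radioactivity (% ID/g) and adrenal-to-blood, liver, kidney, small intestine, muscle and fat ratios determined at 10, 30 and 60 min post-dose. Tracers (approximately 1 to 3.7 MBq, saline with 1 w/v % ascorbic acid) injected i.v. into caudal vein of anesthetized 9-week male Wistar rats; organs excised, weighed, counted.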

[3] = Plasma stability evaluation (TLC analysis); type: in vitro ADME; conditions: 37° C., 60 minutes, TLC analysis
Summary of the method: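 TLC analysis, using each compound's synthesis conditions, judged stability after methanol was added and samples were centrifuged to remove protein. Beforehand, each tracer had spent 60 minutes at 37° C in pooled heparinized normal human plasma.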

CC(C)n1c(-c2cncc(Cn3ccnc3)c2)nc2ccc([123I])cc21 [[^123I] 606, 2-[5-{(1H-imidazol-1-yl)methyl}pyridin-3-yl]-6-[^123I]iodo-1-isopropyl-1H-benzo[d]imidazole]
B2/B1 accumulation ratio [1]: 0.87
B2 (PSL value, aldosterone-producing adenoma) ([1]; site 71b): 1655
B1 (PSL value, normal adrenal cortex) ([1]; site 72b): 1913
Adrenal gland/blood ratio of radioactivity accumulation ([2]; 10 min after administration): 85.09 ± 27.52
Adrenal gland/fat ratio of radioactivity accumulation ([2]; 10 min after administration): 100.88 ± 26.65
Adrenal gland/kidney ratio of radioactivity accumulation ([2]; 10 min after administration): 10.11 ± 2.69
Adrenal gland/liver ratio of radioactivity accumulation ([2]; 10 min after administration): 4.02 ± 1.20
Adrenal gland/muscle ratio of radioactivity accumulation ([2]; 10 min after administration): 57.42 ± 9.23
Adrenal gland/small intestine ratio of radioactivity accumulation ([2]; 10 min after administration): 9.70 ± 3.04
Radioactivity distribution Adrenal gland ([2]; 10 min after administration): 13.01 ± 3.75 % ID/g
Radioactivity distribution Bladder (including urine) ([2]; 10 min after administration): 0.27 ± 0.01 % ID/g
Radioactivity distribution Blood ([2]; 10 min after administration): 0.15 ± 0.01 % ID/g
Radioactivity distribution Fat ([2]; 10 min after administration): 0.13 ± 0.01 % ID/g
Radioactivity distribution Femur ([2]; 10 min after administration): 0.59 ± 0.02 % ID/g
Radioactivity distribution Heart ([2]; 10 min after administration): 0.56 ± 0.04 % ID/g
Radioactivity distribution Kidney ([2]; 10 min after administration): 1.29 ± 0.11 % ID/g
Radioactivity distribution Large intestine ([2]; 10 min after administration): 0.17 ± 0.00 % ID/g
Radioactivity distribution Liver ([2]; 10 min after administration): 3.24 ± 0.05 % ID/g
Radioactivity distribution Lung ([2]; 10 min after administration): 0.86 ± 0.07 % ID/g
Radioactivity distribution Muscle (lower limbs) ([2]; 10 min after administration): 0.22 ± 0.04 % ID/g
Radioactivity distribution Remaining whole body ([2]; 10 min after administration): 0.29 ± 0.02 % ID/g
Radioactivity distribution Small intestine ([2]; 10 min after administration): 1.35 ± 0.04 % ID/g
Radioactivity distribution Spleen ([2]; 10 min after administration): 4.55 ± 0.41 % ID/g
Radioactivity distribution Stomach ([2]; 10 min after administration): 0.75 ± 0.09 % ID/g
Radioactivity distribution Testis ([2]; 10 min after administration): 0.08 ± 0.00 % ID/g
Radioactivity distribution Whole brain ([2]; 10 min after administration): 0.03 ± 0.00 % ID/g
Adrenal gland/blood ratio of radioactivity accumulation ([2]; 30 min after administration): 151.28 ± 30.77
Adrenal gland/fat ratio of radioactivity accumulation ([2]; 30 min after administration): 172.63 ± 42.67
Adrenal gland/kidney ratio of radioactivity accumulation ([2]; 30 min after administration): 20.98 ± 3.60
Adrenal gland/liver ratio of radioactivity accumulation ([2]; 30 min after administration): 8.21 ± 1.88
Adrenal gland/muscle ratio of radioactivity accumulation ([2]; 30 min after administration): 130.86 ± 25.55
Adrenal gland/small intestine ratio of radioactivity accumulation ([2]; 30 min after administration): 7.82 ± 2.11
Radioactivity distribution Adrenal gland ([2]; 30 min after administration): 21.23 ± 4.43 % ID/g
Radioactivity distribution Bladder (including urine) ([2]; 30 min after administration): 1.17 ± 0.36 % ID/g
Radioactivity distribution Blood ([2]; 30 min after administration): 0.14 ± 0.00 % ID/g
Radioactivity distribution Fat ([2]; 30 min after administration): 0.12 ± 0.01 % ID/g
Radioactivity distribution Femur ([2]; 30 min after administration): 0.50 ± 0.01 % ID/g
Radioactivity distribution Heart ([2]; 30 min after administration): 0.44 ± 0.01 % ID/g
Radioactivity distribution Kidney ([2]; 30 min after administration): 1.01 ± 0.04 % ID/g
Radioactivity distribution Large intestine ([2]; 30 min after administration): 0.23 ± 0.01 % ID/g
Radioactivity distribution Liver ([2]; 30 min after administration): 2.59 ± 0.07 % ID/g
Radioactivity distribution Lung ([2]; 30 min after administration): 0.65 ± 0.03 % ID/g
Radioactivity distribution Muscle (lower limbs) ([2]; 30 min after administration): 0.16 ± 0.01 % ID/g
Radioactivity distribution Remaining whole body ([2]; 30 min after administration): 0.24 ± 0.01 % ID/g
Radioactivity distribution Small intestine ([2]; 30 min after administration): 2.75 ± 0.21 % ID/g
Radioactivity distribution Spleen ([2]; 30 min after administration): 3.80 ± 0.26 % ID/g
Radioactivity distribution Stomach ([2]; 30 min after administration): 1.66 ± 0.35 % ID/g
Radioactivity distribution Testis ([2]; 30 min after administration): 0.11 ± 0.01 % ID/g
Radioactivity distribution Whole brain ([2]; 30 min after administration): 0.03 ± 0.00 % ID/g
Adrenal gland/blood ratio of radioactivity accumulation ([2]; 60 min after administration): 161.94 ± 14.16
Adrenal gland/fat ratio of radioactivity accumulation ([2]; 60 min after administration): 229.99 ± 79.47
Adrenal gland/kidney ratio of radioactivity accumulation ([2]; 60 min after administration): 22.62 ± 2.40
Adrenal gland/liver ratio of radioactivity accumulation ([2]; 60 min after administration): 8.81 ± 1.68
Adrenal gland/muscle ratio of radioactivity accumulation ([2]; 60 min after administration): 168.08 ± 24.28
Adrenal gland/small intestine ratio of radioactivity accumulation ([2]; 60 min after administration): 5.20 ± 0.46
Radioactivity distribution Adrenal gland ([2]; 60 min after administration): 19.67 ± 3.42 % ID/g
Radioactivity distribution Bladder (including urine) ([2]; 60 min after administration): 2.06 ± 0.40 % ID/g
Radioactivity distribution Blood ([2]; 60 min after administration): 0.12 ± 0.01 % ID/g
Radioactivity distribution Fat ([2]; 60 min after administration): 0.09 ± 0.02 % ID/g
Radioactivity distribution Femur ([2]; 60 min after administration): 0.62 ± 0.04 % ID/g
Radioactivity distribution Heart ([2]; 60 min after administration): 0.40 ± 0.02 % ID/g
Radioactivity distribution Kidney ([2]; 60 min after administration): 0.87 ± 0.07 % ID/g
Radioactivity distribution Large intestine ([2]; 60 min after administration): 0.35 ± 0.06 % ID/g
Radioactivity distribution Liver ([2]; 60 min after administration): 2.24 ± 0.16 % ID/g
Radioactivity distribution Lung ([2]; 60 min after administration): 0.60 ± 0.03 % ID/g
Radioactivity distribution Muscle (lower limbs) ([2]; 60 min after administration): 0.12 ± 0.01 % ID/g
Radioactivity distribution Remaining whole body ([2]; 60 min after administration): 0.22 ± 0.01 % ID/g
Radioactivity distribution Small intestine ([2]; 60 min after administration): 3.77 ± 0.38 % ID/g
Radioactivity distribution Spleen ([2]; 60 min after administration): 3.05 ± 0.35 % ID/g
Radioactivity distribution Stomach ([2]; 60 min after administration): 1.90 ± 0.35 % ID/g
Radioactivity distribution Testis ([2]; 60 min after administration): 0.16 ± 0.03 % ID/g
Radioactivity distribution Whole brain ([2]; 60 min after administration): 0.03 ± 0.00 % ID/g
Radiochemical purity after incubation in human plasma [3]: 88%
